Results as given in ChEMBL document CHEMBL1144968, “Novel, highly potent, selective 5-HT2A/D2 receptor antagonists as potential atypical antipsychotics” (Bioorg Med Chem Lett, 2003).

What was measured:
[1] = target: 5-hydroxytryptamine receptor 2A (Homo sapiens, UniProt P28223); assay: Binding affinity towards 5-hydroxytryptamine 2A receptor using [125I]DOI as radioligand.
[2] = target: T1, 5-hydroxytryptamine receptor 2C (Homo sapiens, UniProt P28335); assay: Binding affinity towards 5-hydroxytryptamine 2C receptor using [125I]DOI as radioligand.
T1 sequence (P28335 whole entry): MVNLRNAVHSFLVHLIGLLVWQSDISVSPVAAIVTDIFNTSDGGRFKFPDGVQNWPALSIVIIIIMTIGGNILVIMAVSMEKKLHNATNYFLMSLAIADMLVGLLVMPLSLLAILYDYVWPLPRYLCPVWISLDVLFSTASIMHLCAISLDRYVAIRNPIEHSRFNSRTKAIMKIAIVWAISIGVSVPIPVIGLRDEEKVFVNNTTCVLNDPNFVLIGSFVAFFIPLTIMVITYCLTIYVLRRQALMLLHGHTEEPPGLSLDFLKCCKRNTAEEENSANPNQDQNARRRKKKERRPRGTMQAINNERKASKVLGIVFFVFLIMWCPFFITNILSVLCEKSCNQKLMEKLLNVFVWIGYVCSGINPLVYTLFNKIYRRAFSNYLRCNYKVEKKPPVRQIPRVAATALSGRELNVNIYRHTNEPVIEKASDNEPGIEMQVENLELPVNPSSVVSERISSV

D(2) dopamine receptor = D(2) dopamine receptor (Homo sapiens, UniProt P14416); assay: Binding affinity towards DA D2 receptor using [3H]N-methyl-spiperone as radioligand.
Sequence of D(2) dopamine receptor (P14416 whole entry): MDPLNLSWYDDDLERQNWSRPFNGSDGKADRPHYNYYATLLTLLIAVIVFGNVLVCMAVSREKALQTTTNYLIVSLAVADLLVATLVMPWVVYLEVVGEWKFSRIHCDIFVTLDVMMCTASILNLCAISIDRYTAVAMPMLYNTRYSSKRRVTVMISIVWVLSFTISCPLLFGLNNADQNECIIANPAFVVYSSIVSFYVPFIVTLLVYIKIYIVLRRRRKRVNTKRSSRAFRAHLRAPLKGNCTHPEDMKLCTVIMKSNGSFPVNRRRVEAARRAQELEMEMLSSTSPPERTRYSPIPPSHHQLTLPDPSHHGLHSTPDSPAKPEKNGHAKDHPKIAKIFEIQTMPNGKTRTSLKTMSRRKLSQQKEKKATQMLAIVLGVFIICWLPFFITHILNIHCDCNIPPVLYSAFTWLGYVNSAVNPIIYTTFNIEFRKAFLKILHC

[3] = target: Dopamine D2 receptor and serotonin 2a receptor (Homo sapiens) (UniProt P14416+P28223); assay: Selectivity ratio for inhibition of dopamine D2 receptor to that of 5-HT2A receptor.; type: protein assay
Sequence of Dopamine D2 receptor and serotonin 2a receptor (Homo sapiens) (P14416 whole entry, looked up): as the sequence (P14416 whole entry) above
Sequence of Dopamine D2 receptor and serotonin 2a receptor (Homo sapiens) (P28223 whole entry, looked up): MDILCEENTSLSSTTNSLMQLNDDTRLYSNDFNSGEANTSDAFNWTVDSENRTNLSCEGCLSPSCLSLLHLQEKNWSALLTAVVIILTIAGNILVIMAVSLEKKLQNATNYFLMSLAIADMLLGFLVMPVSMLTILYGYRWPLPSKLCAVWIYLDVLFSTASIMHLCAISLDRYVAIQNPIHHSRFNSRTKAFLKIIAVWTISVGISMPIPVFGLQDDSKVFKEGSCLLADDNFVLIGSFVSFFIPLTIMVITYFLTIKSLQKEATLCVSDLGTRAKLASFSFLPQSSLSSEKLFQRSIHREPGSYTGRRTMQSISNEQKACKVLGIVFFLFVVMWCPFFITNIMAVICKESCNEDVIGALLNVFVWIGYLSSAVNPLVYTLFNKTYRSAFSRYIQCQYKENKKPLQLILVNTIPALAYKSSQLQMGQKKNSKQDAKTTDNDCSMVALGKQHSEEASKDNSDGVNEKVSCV

Rattus norvegicus = assay: Inhibition of quipazine induced head twitching after peroral administration in rat.; type: functional; conditions: po

Sequence of 5-hydroxytryptamine receptor 2A (P28223 whole entry): as the sequence (P28223 whole entry, looked up) above

Row | SMILES | Ki [1] [nM] | Ki [2] [nM] | Ki (D(2) dopamine receptor) [nM] | Ratio [3] | ED50 (Rattus norvegicus) [mg/kg]
1 | CCNC(=O)Nc1cc(F)ccc1C(=O)CCCN1CC[C@H]2[C@@H](C1)c1cccc3c1N2CCCS3 | 11 | 48 | 26 | 2.3 | 
2 | CCOC(=O)Nc1cc(F)ccc1C(=O)CCCN1CC[C@H]2[C@@H](C1)c1cccc3c1N2CCCS3 | 51 | 349 | 15.1 | 0.29 | 
3 | Nc1c(F)cccc1C(=O)CCCN1CC[C@H]2[C@@H](C1)c1cccc3c1N2CCCS3 | 7.6 | 672 | 14 | 1.8 | 
4 | O=C(CCCN1CC[C@H]2[C@@H](C1)c1cccc3c1N2CCCS3)c1ccccc1 | 2.7 | 417 | 17 | 6.3 | 
5 | Nc1cc(F)ccc1C(=O)CCCN1CC[C@H]2[C@@H](C1)c1cccc3c1N2CCCS3 (stereo in doubt; (+)-6) [listing 1 of 2 here] | 0.4 | 82 | 2.7 |  | 0.52
6 | Nc1cc(F)ccc1C(=O)CCCN1CC[C@H]2[C@@H](C1)c1cccc3c1N2CCC3 | 0.5 | 53 | 5.2 | 10.2 | 
7 | Nc1cc(Cl)ccc1C(=O)CCCN1CC[C@H]2[C@@H](C1)c1cccc3c1N2CCCS3 | 70 | 754 | 2.3 | 0.03 | 
8 | CC(=O)Nc1cc(F)ccc1C(=O)CCCN1CC[C@H]2[C@@H](C1)c1cccc3c1N2CCCS3 | 0.8 | 222 | 3.4 | 4.3 | 
9 | O=CNc1cc(F)ccc1C(=O)CCCN1CC[C@H]2[C@@H](C1)c1cccc3c1N2CCCS3 | 90 | 259 | 7.7 | 0.09 | 
10 | Nc1cc(F)ccc1C(=O)CCCN1CC[C@H]2[C@@H](C1)c1cccc3c1N2CCO3 | 0.2 | 128 | 2.3 | 12 | 
11 | Nc1cc(F)ccc1C(=O)CCCN1CC[C@@H]2[C@H](C1)c1cccc3c1N2CCCS3 | 4.2 | 452 | 4.7 | 1.1 | 
12 | Nc1cc(F)ccc1C(=O)CCCN1CC[C@H]2[C@@H](C1)c1cccc3c1N2CCCS3 (stereo in doubt; 6) [listing 1 of 2 here] |  |  |  | 5.9 | 
13 | Nc1cc(F)ccc1C(=O)CCCN1CC[C@@H]2[C@H](C1)c1cccc3c1N2CCCC3 | 0.9 | 136 | 19 | 21 | 
14 | Nc1ccc(F)cc1C(=O)CCCN1CC[C@H]2[C@@H](C1)c1cccc3c1N2CCCS3 | 15 | 258 | 15 | 1 | 
15 | Nc1cc(F)ccc1C(=O)CCCN1CC[C@@H]2[C@H](C1)c1cccc3c1N2CCO3 | 2.8 | 664 | 16 | 5.7 | 0.03
16 | Nc1cc(F)ccc1C(=O)CCCN1CC[C@H]2[C@@H](C1)c1cccc3c1N2CCCS3 (stereo in doubt; 6) [listing 2 of 2 here] | 0.7 | 106 | 4.1 |  | 
17 | Nc1cc(F)ccc1C(=O)CCCN1CC[C@H]2[C@@H](C1)c1cccc3c1N2CCCS3 (stereo in doubt; (+)-6) [listing 2 of 2 here] |  |  |  | 6.8 | 
18 | Nc1cc(F)ccc1C(=O)CCCN1CC[C@H]2[C@@H](C1)c1cccc3c1N2CCCC3 | 0.6 | 136 | 3.5 | 5.8 | 
19 | CS(=O)(=O)Nc1cc(F)ccc1C(=O)CCCN1CC[C@H]2[C@@H](C1)c1cccc3c1N2CCCS3 | 7.5 | 639 | 18 | 2.4 | 
20 | O=C(CCCN1CC[C@H]2[C@@H](C1)c1cccc3c1N2CCCS3)c1ccc(F)cc1 | 2.5 | 609 | 8.8 | 3.5 | 0.86
21 | Nc1cc(O)ccc1C(=O)CCCN1CC[C@H]2[C@@H](C1)c1cccc3c1N2CCCS3 | 90 | 259 | 50 | 0.56 | 
22 | Nc1cc(F)ccc1C(=O)CCCN1CC[C@@H]2[C@H](C1)c1cccc3c1N2CCC3 | 1.2 | 71 | 29 | 24 | 1.4

The next lines start with results.

Row | Ki [1] [nM] | Ki [2] [nM] | Ki (D(2) dopamine receptor) [nM] | Ratio [3] | SMILES | ED50 (Rattus norvegicus) [mg/kg]
23 | 0.3 | 90 | 4 | 13 | Nc1cc(F)ccc1C(=O)CCCN1CC[C@H]2[C@@H](C1)c1cccc3c1N2CCS3 | 
24 | 79 | 112 | 4.7 | 0.06 | Nc1cc(Br)ccc1C(=O)CCCN1CC[C@H]2[C@@H](C1)c1cccc3c1N2CCCS3 | 
25 | 0.8 | 106 | 68 | 85 | Nc1ccccc1C(=O)CCCN1CC[C@H]2[C@@H](C1)c1cccc3c1N2CCC3 | 
26 | 0.8 | 417 | 41 | 51 | Nc1ccccc1C(=O)CCCN1CC[C@H]2[C@@H](C1)c1cccc3c1N2CCS3 | 
27 | 10.4 | 320 | 5.9 | 0.57 | Nc1ccccc1C(=O)CCCN1CC[C@@H]2[C@H](C1)c1cccc3c1N2CCCS3 | 
28 | 3.1 | 148 | 20 | 6.5 | Nc1ccccc1C(=O)CCCN1CC[C@@H]2[C@H](C1)c1cccc3c1N2CCCC3 | 
29 | 1.5 | 184 | 14 | 9.3 | Nc1cc(F)ccc1C(=O)CCCN1CC[C@@H]2[C@H](C1)c1cccc3c1N2CCS3 | 
30 | 62 | 253 | 31 | 0.5 | CNc1ccccc1C(=O)CCCN1CC[C@H]2[C@@H](C1)c1cccc3c1N2CCCS3 | 
31 | 2.1 | 200 | 6 |  | Nc1ccccc1C(=O)CCCN1CC[C@H]2[C@@H](C1)c1cccc3c1N2CCCS3 (stereo in doubt; 4) [listing 1 of 2 here] | 
32 | 0.7 | 106 | 11 | 16 | Nc1ccccc1C(=O)CCCN1CC[C@H]2[C@@H](C1)c1cccc3c1N2CCCC3 | 
33 | 11.9 | 501 | 60 | 5 | Nc1ccccc1C(=O)CCCN1CC[C@@H]2[C@H](C1)c1cccc3c1N2CCO3 | 
34 |  |  |  | 2.9 | Nc1ccccc1C(=O)CCCN1CC[C@H]2[C@@H](C1)c1cccc3c1N2CCCS3 (stereo in doubt; 4) [listing 2 of 2 here] | 
35 | 6.6 | 237 | 19 | 2.9 | Nc1ccccc1C(=O)CCCN1CC[C@@H]2[C@H](C1)c1cccc3c1N2CCS3 | 
36 |  |  |  | 25 | Nc1ccccc1C(=O)CCCN1CC[C@H]2[C@@H](C1)c1cccc3c1N2CCCS3 (stereo in doubt; (+)-4) [listing 1 of 2 here] | 
37 | 1.6 | 335 | 23 | 14 | Nc1ccccc1C(=O)CCCN1CC[C@H]2[C@@H](C1)c1cccc3c1N2CCO3 | 
38 | 0.6 | 172 | 15 |  | Nc1ccccc1C(=O)CCCN1CC[C@H]2[C@@H](C1)c1cccc3c1N2CCCS3 (stereo in doubt; (+)-4) [listing 2 of 2 here] | 
39 | 3.7 | 94 | 63 | 17 | Nc1ccccc1C(=O)CCCN1CC[C@@H]2[C@H](C1)c1cccc3c1N2CCC3 | 
